ChEMBL document CHEMBL1148037, “Effect of Fungal Natural Products in an Agrobacterium tumefaciens Potato Disc Assay” (1994)
Activity calls are given as the source filed them. The rule behind the calls is not given here.

Experiments:
[1] = test system: Agrobacterium tumefaciens; assay: Antitumor activity against Agrobacterium tumefaciens B6-induced crown-gall tumor formation in potato assessed as tumor induction at 25 ug/disk after 12 days at 27 degC by potato disk assay relative to control; assay type: functional
[2] = test system: Agrobacterium tumefaciens; assay: Antitumor activity against Agrobacterium tumefaciens B6-induced crown-gall tumor formation in potato assessed as tumor induction at 5 ug/disk after 12 days at 27 degC by potato disk assay relative to control; assay type: functional
[3] = test system: Agrobacterium tumefaciens; assay: Antitumor activity against Agrobacterium tumefaciens B6-induced crown-gall tumor formation in potato assessed as tumor induction at 10 ug/disk after 12 days at 27 degC by potato disk assay relative to control; assay type: functional
[4] = test system: Agrobacterium tumefaciens; assay: Antitumor activity against Agrobacterium tumefaciens B6-induced crown-gall tumor formation in potato assessed as tumor induction at 50 ug/disk after 12 days at 27 degC by potato disk assay relative to control; assay type: functional
Bacillus subtilis = assay: Antibacterial activity against Bacillus subtilis at 50 to 500 ug/disk by paper-disk-plate technique; assay type: functional, organism-based
[5] = test system: Brochothrix thermosphacta; assay: Antibacterial activity against Microbacterium thermosphactum at 50 to 500 ug/disk by paper-disk-plate technique; assay type: functional, organism-based
Bacillus cereus = assay: Antibacterial activity against Bacillus cereus at 50 to 500 ug/disk by paper-disk-plate technique; assay type: functional, organism-based
Escherichia coli = assay: Antibacterial activity against Escherichia coli at 50 to 500 ug/disk by paper-disk-plate technique; assay type: functional, organism-based
Enterobacter cloacae = assay: Antibacterial activity against Enterobacter cloacae at 50 to 500 ug/disk by paper-disk-plate technique; assay type: functional, organism-based
Citrobacter freundii = assay: Antibacterial activity against Citrobacter freundii at 50 to 500 ug/disk by paper-disk-plate technique; assay type: functional, organism-based
Aspergillus flavus = assay: Antifungal activity against Aspergillus flavus at 50 to 500 ug/disk by paper-disk-plate technique; assay type: functional, organism-based
Curvularia lunata = assay: Antifungal activity against Curvularia lunata at 50 to 500 ug/disk by paper-disk-plate technique; assay type: functional, organism-based
Chaetomium = assay: Antifungal activity against Chaetomium at 50 to 500 ug/disk by paper-disk-plate technique; assay type: functional, organism-based
[6] = test system: Agrobacterium tumefaciens; assay: Antibacterial activity against Agrobacterium tumefaciens at 50 to 500 ug/disk by paper-disk-plate technique; assay type: functional, organism-based

CCCCCc1cccc(=O)o1
Activity [1]: -35.5%

CO[C@]12c3c(C)cc(O)c4c(=O)occ(c34)C(=O)[C@H]1[C@]13COC(=O)c4c(O)cc(C)c(c41)C(=O)[C@H]2[C@@H]3OC(C)=O
Activity [1]: -95%
Activity [2]: -67%
Activity [3]: -74%
Activity [4]: -94%
Activity (Bacillus subtilis): inactive
Activity [5]: inactive
Activity (Bacillus cereus): inactive
Activity (Escherichia coli): inactive
Activity (Enterobacter cloacae): inactive
Activity (Citrobacter freundii): inactive
Activity (Aspergillus flavus): inactive
Activity (Curvularia lunata): inactive
Activity (Chaetomium): inactive
Activity [6]: inactive

CC(=C\C(=O)O)/C=C(\C)C[C@H](C)CCCC[C@H]1OC(=O)[C@@H]1CO [ANTIBIOTIC 1233A]
Activity [1]: -39%

C[C@H]1CCC/C=C/[C@@H]2C[C@H](O)C[C@H]2[C@H](O)/C=C/C(=O)O1 [BREFELDIN A]
Activity [1]: -62%

CC[C@@]1(O)C(=O)OCc2c1cc1n(c2=O)Cc2cc3ccccc3nc2-1 [CAMPTOTHECIN]
Activity [1]: -100%

CC[C@H]1C2[C@H]([C@@H](C)c3c[nH]c4ccccc34)NC(=O)[C@@]23C(=O)/C=C\C(=O)[C@H](O)/C(C)=C\[C@@H](C)C/C=C/[C@H]3[C@@H]2O[C@]12C (some centres undefined) [CHAETOGLOBOSIN K]
Activity [1]: -94%
Activity [2]: -74%
Activity [3]: -97%
Activity [4]: -100%
Activity (Bacillus subtilis): inactive
Activity [5]: inactive
Activity (Bacillus cereus): inactive
Activity (Escherichia coli): inactive
Activity (Enterobacter cloacae): inactive
Activity (Citrobacter freundii): inactive
Activity (Aspergillus flavus): inactive
Activity (Curvularia lunata): inactive
Activity (Chaetomium): inactive
Activity [6]: inactive

CC1=C2C(=CO[C@H](C)[C@H]2C)C(O)=C(C(=O)O)C1=O [CITRININ]
Activity [1]: -26%

C[C@H]1CCC[C@H](C[C@H]2Cc3cc(O)cc(O)c3C(=O)O2)O1 [CLADOSPORIN]
Activity [1]: -79%
Activity [2]: -14%
Activity [3]: -16%
Activity [4]: -90%

CC[C@@H]1CCc2occ(CO)c(=O)c2[C@H]1O [DIPLODIOL]
Activity [1]: -96.3%
Activity [2]: -70%
Activity [3]: -73%
Activity [4]: -75%
Activity (Bacillus subtilis): inactive
Activity [5]: inactive
Activity (Bacillus cereus): inactive
Activity (Escherichia coli): inactive
Activity (Enterobacter cloacae): inactive
Activity (Citrobacter freundii): inactive
Activity (Aspergillus flavus): inactive
Activity (Curvularia lunata): inactive
Activity (Chaetomium): inactive
Activity [6]: inactive

CCCCCC[C@@H]1O[C@]23O[C@H]1CC[C@H]2[C@@H](O)CC[C@H]3O [KONINGININ A]
Activity [1]: 75%

CCCCCC[C@@H](O)[C@H]1CCC2=C(O1)[C@@H](O)CCC2=O [KONINGININ B]
Activity [1]: 1%

C[C@@H]1C/C=C/CCCCC(=O)Cc2cc(O)cc(O)c2C(=O)O1 [MONOCILLIN IV]
Activity [1]: -78%
Activity [2]: -8%
Activity [3]: -63%
Activity [4]: -75%
Activity (Bacillus subtilis): inactive
Activity [5]: inactive
Activity (Bacillus cereus): inactive
Activity (Escherichia coli): inactive
Activity (Enterobacter cloacae): inactive
Activity (Citrobacter freundii): inactive
Activity (Aspergillus flavus): inactive
Activity (Curvularia lunata): inactive
Activity (Chaetomium): inactive
Activity [6]: inactive

O=C1C=C2C(=CCOC2O)O1 (centres undefined) [PATULIN]
Activity [1]: -66%

CC(C)=C1Oc2c(ccc3c2COC(C)(O)C3)C1=O (centres undefined) [PERGILLIN]
Activity [1]: -68.9%

C[C@@H]1C[C@H]2O[C@@H]2/C=C\C=C\C(=O)Cc2c(Cl)c(O)cc(O)c2C(=O)O1 [RADICICOL]
Activity [1]: -75%
Activity [2]: -76%
Activity [3]: -94%
Activity [4]: -100%

O=C(O)/C=C/CCCCCCCCC(=O)O [TRAUMATIC ACID]
Activity [1]: 28.4%
